The nature of series [1]: Selectivity for sigma 2 receptor over sigma 1 receptor.
Series [2] can be described thus: Apparent permeability from apical to basolateral side of human Caco-2 cell membrane at pH 7.4 after 21 days. It is filed as ADME, cell-based. The conditions noted are these: Caco-2, pH 7.4. (Caco-2 monolayers are a common model of the intestinal barrier.)
Series [3] concerns the target Sigma non-opioid intracellular receptor 1 (Mus musculus, UniProt O55242). In words: Displacement of (+)-[3H]pentazocine from mouse sigma 1 receptor in TRAMP cell membrane. In kind it is cell membranes.
Series [4] can be described thus: Displacement of [3H]DTG from mouse sigma-2 receptor in TRAMP cell membrane. In kind it is cell membranes.
Series [5] can be described thus: Cytotoxicity against mouse TRAMP cells. In kind it is functional, cell-based.
Series [6] is described as follows: Antiproliferative activity against mouse TRAMP cells. It is filed as functional, cell-based.

Sigma non-opioid intracellular receptor 1, sequence (O55242 whole entry): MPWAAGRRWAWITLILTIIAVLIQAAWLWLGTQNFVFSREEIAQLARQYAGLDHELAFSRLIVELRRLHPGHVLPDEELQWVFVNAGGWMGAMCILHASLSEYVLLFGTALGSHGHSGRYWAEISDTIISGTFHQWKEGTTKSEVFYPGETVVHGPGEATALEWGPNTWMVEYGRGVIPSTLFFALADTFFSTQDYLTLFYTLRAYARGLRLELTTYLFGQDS

In the case of `COc1cccc2c1CCCC2CCCN1CCN(C2CCCCC2)CC1` (stereo unspecified), in series [1], the Selectivity ratio amounted to 40.
One may read the Papp A→B as how fast a substance crosses the layer from the apical side. For orientation: Ki means a measure of affinity in units of concentration, obtained from inhibition or displacement. Read a low Ki as higher affinity. In general, EC50 refers to the concentration at which the effect is half-maximal. The low end stands for higher potency in that assay, the high end for lower potency in that assay. As for `COc1cccc2c(CCCN3CCN(C4CCCCC4)CC3)cccc12`, in series [2], the Papp A→B stood at 6.3 ×10⁻⁶ cm/s. Moreover, the Ki in series [3] is 0.0065 µM; in series [4] it was 0.0005 µM. The EC50 in series [5] is 26.6 µM; in series [6], 16.9 µM.

The record behind these values is ChEMBL document CHEMBL1143229, “PB183, a sigma receptor ligand, as a potential PET probe for the imaging of prostate adenocarcinoma” (Bioorg Med Chem Lett, 2008).
